Broadly, the Ki is a dissociation constant, usually derived from enzyme kinetics or from competition with a known ligand. A lower Ki goes with tighter binding.

SMILES strings stand for the structures. Read-outs that look alike come from different tables or passages of the source.

This assay addresses T1, unphosphorylated VEGF-R2Δ50 (FLVK) (Homo sapiens, UniProt P35968, DEL940-989/E990V).
T1 construct: VEGF-R2Δ50 contains residues 806–939 and 990–1171; made in house; host or cells: baculovirus/insect cell system
In words: VEGF-R2 coupled spectrophotometric assay, unphosphorylated VEGF-R2Δ50 (FLVK). It is filed as biochemical. The note with it: for inhibition at 0.05 µM: read-out: FLVK (% inh @ 50 nM). The source says: VEGF-R2 Construct for Assay:
This construct determines the ability of a test compound to inhibit tyrosine kinase activity. A construct (VEGF-R2Δ50) of the cytosolic domain of human vascular endothelial growth factor receptor 2 (VEGF-R2) lacking the 50 central residues of the 68 residues of the kinase insert domain was expressed in a baculovirus/insect cell system. Of the 1356 residues of full-length VEGF-R2, VEGF-R2Δ50 contains residues 806–939 and 990–1171, and also one point mutation (E990V) within the kinase insert domain relative to wild-type VEGF-R2. Autophosphorylation of the purified construct was performed by incubation of the enzyme at a concentration of 4 μM in the presence of 3 mM ATP and 40 mM MgCl2 in 100 mM HEPES, pH 7.5, containing 5% glycerol and 5 mM DTT, at 4° C. for 2 h. […] See Parast et al., Biochemistry, 37, 16788–16801 (1998).
Coupled Spectrophotometric (FLVK-P) Assay
The production of ADP from ATP that accompanies phosphoryl transfer was coupled to oxidation of NADH using phosphoenolpyruvate (PEP) and a system having pyruvate kinase (PK) and lactic dehydrogenase (LDH). The oxidation of NADH was monitored by following the decrease of absorbance at 340 nm (e340=6.22 cm^−1 mM^−1) using a Beckman DU 650 spectrophotometer. Assay conditions for phosphorylated VEGF-R2Δ50 (indicated as FLVK-P in the tables below) were the following: 1 mM PEP; 250 μM NADH; 50 units of LDH/mL; 20 units of PK/mL; 5 mM DTT; 5.1 mM poly(E4Y1); 1 mM ATP; and 25 mM MgCl2 in 200 mM HEPES, pH 7.5. Assay conditions for unphosphorylated VEGF-R2Δ50 (indicated as FLVK in the tables) were the following: 1 mM PEP; 250 μM NADH; 50 units of LDH/mL; 20 units of PK/mL; 5 mM DTT; 20 mM poly(E4Y1); 3 mM ATP; and 60 mM MgCl2 and 2 mM MnCl2 in 200 mM HEPES, pH 7.5. Assays were initiated with 5 to 40 nM of enzyme. Ki values were determined by measuring enzyme activity in the presence of varying concentrations of test compounds. […] The binding inhibitions were fitted to equation as described by Morrison. The data were analyzed using Enzyme Kinetic and Kaleidagraph software.

Setting [1] is: 50 nM compound, unphosphorylated VEGF-R2Δ50.

T1 sequence (P35968 with tags, fused parts or gaps DEL940-989/E990V limits assumed): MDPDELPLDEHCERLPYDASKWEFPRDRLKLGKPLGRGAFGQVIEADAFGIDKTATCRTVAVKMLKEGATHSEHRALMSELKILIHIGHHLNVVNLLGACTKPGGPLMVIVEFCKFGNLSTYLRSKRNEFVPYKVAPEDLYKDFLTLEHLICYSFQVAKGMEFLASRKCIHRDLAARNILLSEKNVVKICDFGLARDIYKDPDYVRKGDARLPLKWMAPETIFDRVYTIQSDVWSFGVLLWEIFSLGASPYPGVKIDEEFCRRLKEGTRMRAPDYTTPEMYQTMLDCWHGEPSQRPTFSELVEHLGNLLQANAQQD

For the compound `CNC(=O)c1c(C)n(C)c2cc(Oc3ccnc4cc(C(=O)N(C)CCO)sc34)ccc12` [Example 31], the inhibition at 0.05 µM under setting [1] was determined as 25%. This compound registered an inhibitory constant (Ki) (unphosphorylated VEGF-R2Δ50) of 30.2 nM. Turning to `CNC(=O)c1c(C)n(C)c2cc(Oc3ccnc4cc(C(=O)N5C[C@H](OC)[C@H](OC)C5)sc34)ccc12` [Example 36, 6-[2-(3,4-Dimethoxy-pyrrolidine-1-carbonyl)-thieno[3,2-b]pyridin-7-yloxy]-1,2-dimethyl-1H-indole-3-carboxylic acid methylamide], the inhibition at 0.05 µM under setting [1] amounted to 41%. In addition, the affinity (unphosphorylated VEGF-R2Δ50) corresponds to a Ki of 11.5 nM.

`CNC(=O)c1c(C(C)C)oc2cc(Oc3ccnc4cc(C(=O)N5CC[C@@H](OC)C5)sc34)ccc12` [Example 15, 6-(2-[3-methoxypyrrolidine-1-carbonyl]thieno[3,2-b]pyridin-7-yloxy)-2-(1-methylethyl)benzofuran-3-carboxylic acid methylamide]: the inhibition at 0.05 µM under setting [1] worked out at 13%. The compound also gave a Ki (unphosphorylated VEGF-R2Δ50) of 48.3 nM.

On to `Cc1cc2nccc(Oc3ccc4c(C(=O)NCCCN5CCOCC5)c(C)sc4c3)c2s1` [Example 140, 2-Methyl-6-(2-methylthieno[3,2-b]pyridin-7-yloxy)benzo[b]thiophene-3-carboxylic acid (3-morpholin-4ylpropyl)-amide], for which, under setting [1], the inhibition at 0.05 µM was 90%. As for `CCn1c(C)c(C(=O)NC)c2ccc(Oc3ccnc4cc(C(=O)N5CCC5)sc34)cc21` [Example 71, 6-[2-(Azetidine-1-carbonyl)thieno[3,2-b]pyridin-7-yloxy]-1-ethyl-2-methyl-1H-indole-3-carboxylic acid methylamide], the inhibition at 0.05 µM was 5%. For `CNC(=O)c1c(C)sc2cc(Oc3ccnc4cc(COCCN5CCCC5)sc34)ccc12` [Example 114, 2-Methyl-6(2-[2-(pyrrolidin-1-yl)ethoxymethyl]thieno[3,2-b]pyridin-7-yloxy)benzo[b]thiophene-3-carboxylic acid methylamide], the inhibition at 0.05 µM under setting [1] is 16%. Under “unphosphorylated VEGF-R2Δ50”, this compound had an inhibition constant Ki of 119 nM.

In the case of `CNC(=O)c1cn(C)c2cc(Oc3ccnc4cc(C(=O)N5CC[C@@H](OC)C5)sc34)ccc12` [Example 22, 6-[2-(3-methoxypyrrolidine-1-carbonyl)-thieno[3,2-b]pyridin-7-yloxy]-1-methyl-1H-indole-3-carboxylic acid methylamide], the inhibition at 0.05 µM under setting [1] came to 38%. In addition, the affinity (unphosphorylated VEGF-R2Δ50), expressed as Ki, was 25.8 nM. With `Cc1oc2cc(Oc3ccnc4ccsc34)ccc2c1C(=O)NCCOC(C)C` [Example 109, 2-Methyl-6-(thieno[3,2-b]pyridin-7-yloxy)-benzofuran-3-carboxylic acid (2-isopropoxy-ethyl)-amide], the inhibition at 0.05 µM under setting [1] worked out at 82%. Take `CNC(=O)c1c(C)sc2cc(Oc3ccnc4cc(CN(C)C)sc34)ccc12` [Example 116, 6-(2-[Dimethylaminomethyl]thieno[3,2-b]pyridin-7-yloxy)-2-methylbenzo[b]thiophene-3-carboxylic acid methylamide]: the inhibition at 0.05 µM under setting [1] worked out at 4%. The same measure, in the same setting: to `Cc1cc2nccc(Oc3ccc4c(C(=O)NCCN5CCOCC5)c(C)sc4c3)c2s1` [Example 139, 2-Methyl-6-(2-methylthieno[3,2-b]pyridin-7-yloxy)benzo[b]thiophene-3-carboxylic acid (2-morpholin-4-yl-ethyl)-amide] belongs 40%. The same measure, in the same setting: the result for `Cc1oc2cc(Oc3ccnc4ccsc34)ccc2c1C(=O)Nc1ccc2[nH]ccc2c1` [Example 113, 2-Methyl-6-(thieno[3,2-b]pyridin-7-yloxy)-benzofuran-3-carboxylic acid (1H-indol-5-yl)-amide] reads 99%. For `CNC(=O)c1c(C)n(C)c2cc(Oc3ccnc4cc(C(=O)N(C)CCN(C)C)sc34)ccc12` [Example 29, N-[2-(Dimethylamino)ethyl]-7-({1,2-dimethyl-3-[(methylamino)carbonyl]-1H-indol-6-yl}oxy)-N-methylthieno[3,2-b]pyridine-2-carboxamide], under setting [1], the inhibition at 0.05 µM amounted to 6%. This compound registered a Ki (unphosphorylated VEGF-R2Δ50) of 88.8 nM.

Regarding `CNC(=O)c1c(C)n(C)c2cc(Oc3ccnc4cc(-c5ncccn5)sc34)ccc12` [Example 50, 1,2-Dimethyl-6-(2-pyrimidin-2-yl-thieno[3,2-b]pyridin-7-yloxy)-1H-indole-3-carboxylic acid methylamide], the inhibition at 0.05 µM under setting [1] turned out to be 36%. Under “unphosphorylated VEGF-R2Δ50”, this compound had a Ki of 36.5 nM. With `CNC(=O)c1c(C(F)(F)F)n(C)c2cc(Oc3ccnc4cc(-c5nccn5C)sc34)ccc12` [Example 76, 1-Methyl-6-[2-(1-methyl-1H-imidazol-2-yl)-thieno[3,2-b]pyridin-7-yloxy]-2-trifluoromethyl-1H-indole-3-carboxylic acid methylamide], under setting [1], the inhibition at 0.05 µM stood at 36%. Moreover, the Ki (unphosphorylated VEGF-R2Δ50) came out at 6.26 nM.

As to `Cc1oc2cc(Oc3ccnc4ccsc34)ccc2c1C(=O)NCCCN1CCOCC1` [Example 112, 2-Methyl-6-(thieno[3,2-b]pyridin-7-yloxy)benzofuran-3-carboxylic acid (3-morpholin-4-ylpropyl)-amide], under setting [1], the inhibition at 0.05 µM came out at 91%. The same measure, in the same setting: the result for `Cc1oc2cc(Oc3ccnc4ccsc34)ccc2c1C(=O)NCCC1CCCN1C` (stereo not drawn) [Example 110, 2-Methyl-6-(thieno[3,2-b]pyridin-7-yloxy)-benzofuran-3-carboxylic acid [2-(1-methyl-pyrrolidin-2-yl)-ethyl]-amide] reads 21%; that for `Cc1oc2cc(Oc3ccnc4ccsc34)ccc2c1C(=O)NCCc1ccc(S(N)(=O)=O)cc1` [Example 108, 2-Methyl-6-(thieno[3,2-b]pyridin-7-yloxy)-benzofuran-3-carboxylic acid [2-(4-sulfamoyl-phenyl)-ethyl]-amide], 61%. Turning to `CCc1c(C(=O)NC)c2ccc(Oc3ccnc4cc(C(=O)N5CC[C@@H](O)C5)sc34)cc2n1C` [Example 73, 2-Ethyl-6-[2-(3-hydroxy-pyrrolidine-1-carbonyl)-thieno[3,2-b]pyridin-7-yloxy]-1-methyl-1H-indole-3-carboxylic acid methylamide], under setting [1], the inhibition at 0.05 µM worked out at 48%. The affinity (unphosphorylated VEGF-R2Δ50) corresponds to a Ki of 10.3 nM. The corresponding values for `Cc1c(C(=O)NCC(C)C)c2ccc(Oc3ccnc4cc(-c5nccs5)sc34)cc2n1C` [Example 67, 1,2-Dimethyl-4(2-thiazol-2-yl-thieno[3,2-b]pyridin-7-yloxy)-1 indole-3-carboxylic acid isobutyl-amide] are 58% and 12.5 nM. For `CCc1oc2cc(Oc3ccnc4cc(C(=O)N5CCC[C@H]5COC)sc34)ccc2c1C(=O)NC` [Example 96, 2-ethyl-6-(2-[(S)-2-(methoxymethyl)pyrrolidine-1-carbonyl]thieno[3,2-b]pyridin-7-yloxy)-benzofuran-3-carboxylic acid methyl amide], under setting [1], the inhibition at 0.05 µM is 51%. For the same compound, the inhibitory constant (Ki) (unphosphorylated VEGF-R2Δ50) stood at 9.61 nM. Turning to `CNC(=O)c1c(C)n(C)c2cc(Oc3ccnc4cc(-c5cccc(CN(C)C)n5)sc34)ccc12` [Example 52, 6-[2-(6-Dimethylaminomethyl-pyridin-2-yl)-thieno[3,2-b]pyridin-7-yloxy]-1,2-dimethyl-1H-indole-3-carboxyllc acid methylamide], under setting [1], the inhibition at 0.05 µM was 41%. For the same compound, affinity (unphosphorylated VEGF-R2Δ50) was put at a Ki of 24.9 nM.

For the compound `Cc1cc(NC(=O)c2c(C)oc3cc(Oc4ccnc5ccsc45)ccc23)n[nH]1` [Example 111, 2-Methyl-6-(thieno[3,2-b]pyridin-7-yloxy)-benzofuran-3-carboxylic acid (5-methyl-1H-pyrazol-3-yl)-amide], under setting [1], the inhibition at 0.05 µM turned out to be 96%. On the same count and under the same terms, the result for `CNC(=O)c1c(C)sc2cc(Oc3ccnc4cc(CN5CCCC5)sc34)ccc12` [Example 115, 2-Methyl-6-(2-[pyrrolidin-1-ylmethyl]thieno[3,2-b]pyridin-7-yloxy)benzo[b]thiophene-3-carboxylic acid methylamide] reads 4%. As to `Cc1oc2cc(Oc3ccnc4ccsc34)ccc2c1C(=O)NCc1ccncc1` [Example 107, 2-Methyl-6-[Thieno(3,2-b)pyridin-7-yloxy]benzofuran-3-carboxylic acid 2-[(4-pyridyl)-methyl] amide], the inhibition at 0.05 µM under setting [1] was found to be 17%. For the same compound, the Ki (unphosphorylated VEGF-R2Δ50) is 36.7 nM.

`CNC(=O)c1c(C)n(C)c2cc(Oc3ccnc4cc(-c5nc(C(C)(C)O)co5)sc34)ccc12` [Example 47, 6-{2-[4-(1-Hydroxy-1-methyl-ethyl)-oxazol-2-yl]-thieno[3,2-b]pyridin-7-yloxy}1,2-dimethyl-1H-indole-3-carboxylic acid methylamide]: under setting [1], the inhibition at 0.05 µM turned out to be 41%. For the same compound, the Ki (unphosphorylated VEGF-R2Δ50) was 19.7 nM.

The values are drawn from patent US7045528B2, “Benzofused heterozryl amide derivatives of thienopyridines useful as therapeutic agents, pharmaceutical compositions including the same, and methods for their use” (Agouron Pharmaceuticals, Inc., priority 2002, dated 2006).
